Reference: US9187497B2, “Substituted pyrido[3,2-e]pyrrolo[1,2-a]pyrazines as inhibitors of poly(ADP-ribose)polymerase (PARP)” (Takeda Phamaceutical Company Limited, priority 2009, dated 2015)

How the values were obtained:
[1] = biological target: T1, catalytic domain of Human PARP (Homo sapiens, UniProt P09874); assay: Biacore surface plasmon resonance affinity assay (dissociation constant KD); type: binding; conditions: pKD=-log(KD), KD in molar concentration; Biacore T100, 25° C.
T1 construct: The catalytic domain of Human PARP was cloned and prepared; made in house
T1 sequence (P09874 788-1014 limits assumed): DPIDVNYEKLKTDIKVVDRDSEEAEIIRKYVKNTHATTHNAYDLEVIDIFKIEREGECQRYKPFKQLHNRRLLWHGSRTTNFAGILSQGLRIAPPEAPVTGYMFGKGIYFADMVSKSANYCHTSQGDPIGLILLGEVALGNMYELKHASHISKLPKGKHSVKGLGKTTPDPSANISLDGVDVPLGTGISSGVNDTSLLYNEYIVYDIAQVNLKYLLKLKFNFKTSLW
Description: Dissociation Constant (KD) from Surface Plasmon Resonance
The catalytic domain of Human PARP was cloned and prepared as described in Kinoshita, T.; Nakanishi, I.; Warizaya, M.; Iwashita, A.; Kido, Y.; Hattori, K. and Fujii, T. 2006 FEBS Letters 556, 43-46. Purified enzyme was stored at −80° C. in 25 mM Tris(hydroxymethyl)aminomethane (Tris) pH 7.4, 150 mM NaCl, 2 mM dithiothreitol (DTT) at a concentration of 6 mg/ml.
Biacore affinity assays for test compounds were conducted on a Biacore T100 (GE Healthcare) as follows. A Series S Sensor Chip CM5 (part number BR-1006-68, GE Healthcare) was activated for amide coupling with an Amine Coupling Kit (part number BR-1000-50, GE Healthcare) as described by the manufacturer. The mobile phase buffer consisted of Biacore buffer HBS-P (part number BR-1003-68, GE Healthcare) supplemented with 1% v/v dimethylsulfoxide (DMSO), 0.5 mM Tris(2-carboxyethyl)phosphine hydrochloride (TCEP), and 5 mM MgCl2. Enzyme samples (2 μl/6 mg/ml) stored at −80° C. were diluted to 0.080 mg/ml with 10 mM 4-morpholineethanesulfonic acid (MES) pH 6.5 and then mounted on the activated Biacore CM5 chip at a flow rate of 10 μl/min for 240 seconds. When successfully mounted, a signal of approximately 8,000 reflective units was observed. Test compounds were diluted 9 times 2-fold serially in mobile phase buffer (listed above) at 1% v/v DMSO final to generate a concentration gradient bracketing their anticipated KDs. Biacore mounted PARP was given a 1 minute exposure (association phase) to various concentrations of test compounds to observe a steady state equilibrium or an on rate. The exposure was followed with a dissociation phase of 5 minutes. The association and dissociation phases were at a flow rate of 50 μl/min and a temperature of 25° C.
Parameters Rmax (response at saturation) and KD (binding constant) were calculated through a nonlinear least squares fitting of the equation to the data by use of the Biacore T100 analysis software.
Parameter optimization was through a nonlinear least squares analysis of the association phase Response=Rmax*(1−exp(−(kon[cmpd]+koff)*t)) and dissociation phase Response=[…] by use of the Biacore T100 analysis software. The binding constant KD was calculated from the definition KD=koff/kon

Jurkat cell line = assay: PARP cellular chemopotentiation assay (MTS cell viability with and without TMZ); type: cell-based; conditions: ratio of EC50 for inhibition of cell viability without and with 100 μM TMZ; Jurkat cells, 96 hours of treatment
How it was run: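 Jurkat cells, 10,000/well, pre-cultured 24 h, then treated 96 h with serial compound dilutions (0.5% DMSO) with or without 100 μM TMZ. Viability by MTS conversion (OD490), normalized to DMSO controls; EC50 from curve fits, PF50 = EC50 without TMZ / EC50 with TMZ.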

PARP = biological target: T2, PARP (Homo sapiens, UniProt P09874); assay: PARP ELISA colorimetric assay of inhibition of PARP catalytic activity (IC50); type: biochemical; conditions: pIC50=-log(IC50), IC50 in molar concentration; ELISA-based PARP kit, 10 minutes of catalysis
T2 construct: purchased Trevigen 4684-096-01 (enzyme); kit 4684-096-K HT
T2 sequence (P09874 whole entry): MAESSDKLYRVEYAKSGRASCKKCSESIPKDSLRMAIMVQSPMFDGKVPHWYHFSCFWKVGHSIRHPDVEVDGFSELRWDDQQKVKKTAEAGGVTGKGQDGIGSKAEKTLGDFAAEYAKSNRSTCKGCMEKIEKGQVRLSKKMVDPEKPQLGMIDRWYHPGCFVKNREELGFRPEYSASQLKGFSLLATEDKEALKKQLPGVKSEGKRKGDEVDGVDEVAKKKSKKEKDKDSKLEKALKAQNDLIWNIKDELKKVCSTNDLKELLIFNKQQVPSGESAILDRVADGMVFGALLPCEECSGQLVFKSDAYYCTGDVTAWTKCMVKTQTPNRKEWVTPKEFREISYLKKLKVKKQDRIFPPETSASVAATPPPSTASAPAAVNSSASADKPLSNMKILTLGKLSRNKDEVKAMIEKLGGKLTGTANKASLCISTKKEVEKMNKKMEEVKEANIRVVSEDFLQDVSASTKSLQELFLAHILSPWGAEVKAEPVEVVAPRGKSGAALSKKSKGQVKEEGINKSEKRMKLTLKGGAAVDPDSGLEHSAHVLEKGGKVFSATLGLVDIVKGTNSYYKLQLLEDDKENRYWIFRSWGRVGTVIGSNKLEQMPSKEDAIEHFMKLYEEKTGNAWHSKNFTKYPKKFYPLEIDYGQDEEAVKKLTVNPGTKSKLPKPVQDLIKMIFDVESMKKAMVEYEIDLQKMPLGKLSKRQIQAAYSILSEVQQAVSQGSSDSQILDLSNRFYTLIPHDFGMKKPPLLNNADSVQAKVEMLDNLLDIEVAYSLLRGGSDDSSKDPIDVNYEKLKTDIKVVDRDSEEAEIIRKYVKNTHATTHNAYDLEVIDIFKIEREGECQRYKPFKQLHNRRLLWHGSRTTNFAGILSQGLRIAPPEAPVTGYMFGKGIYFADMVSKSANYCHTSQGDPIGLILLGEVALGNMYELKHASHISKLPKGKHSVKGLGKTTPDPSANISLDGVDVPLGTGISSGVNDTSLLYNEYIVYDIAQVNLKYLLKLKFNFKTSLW
How it was run: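 Human PARP was added as a 0.1 nM solution to histone-coated wells with compound for a 10-min ambient preincubation. The reaction was started with 100 μM NAD+ solution plus activated DNA and run 10 min. PAR formation was detected by anti-PAR ELISA, colorimetric. IC50 came from a 12-point, 3-fold gradient fitted by nonlinear least squares to a Hill equation.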

SMILES | melting point [°C] | IC50 (PARP) [µM] | Kd [1] [µM] | PF50 (Jurkat cell line)
O=C1Nc2cc(CN3CC=C(c4ccc(Cl)cc4)CC3)cnc2N2CCC[C@@H]12 [Compound 2, (S)-3-((4-(4-chlorophenyl)-5,6-dihydropyridin-1(2H)-yl)methyl)-6a,7,8,9-tetrahydropyrido[3,2-e]pyrrolo[1,2-a]pyrazin-6(5H)-one] | 234 to 235 |  | < 0.0316 | >2000
N#Cc1ccc(N2CCN(Cc3cnc4c(c3)NC(=O)[C@@H]3CCCN43)CC2)cc1 [Compound 4, (S)-4-(4-((6-oxo-5,6,6a,7,8,9-hexahydropyrido[3,2-e]pyrrolo[1,2-a]pyrazin-3-yl)methyl)piperazin-1-yl)benzonitrile] | 252 | 0.0158 to 0.0398 |  | >2000
N#Cc1ccc(N2CCN(Cc3cnc4c(c3)NC(=O)[C@@H]3CCCN43)CC2)nc1 [Compound 5, (S)-6-(4-((6-oxo-5,6,6a,7,8,9-hexahydropyrido[3,2-e]pyrrolo[1,2-a]pyrazin-3-yl)methyl)piperazin-1-yl)nicotinonitrile] | 252 to 256 | 0.0158 to 0.0398 | < 0.0316 | >5000
N#Cc1ccc(N2CCN(Cc3cnc4c(c3)NC(=O)[C@@H]3CCCCN43)CC2)cc1 [Compound 71, (S)-4-(4-((6-oxo-6,6a,7,8,9,10-hexahydro-5H-dipyrido[1,2-a:3′,2′-e]pyrazin-3-yl)methyl)piperazin-1-yl)benzonitrile] | 212.2 | ≤ 0.0126 |  | >500
O=C1Nc2cc(CN3CCN(c4ccc(C(=O)N5CCCC5)cc4)CC3)cnc2N2CCC[C@@H]12 [Compound 138, (S)-3-((4-(4-(pyrrolidine-1-carbonyl)phenyl)piperazin-1-yl)methyl)-6a,7,8,9-tetrahydropyrido[3,2-e]pyrrolo[1,2-a]pyrazin-6(5H)-one] | 121.3 | ≥ 0.0501 |  | ≧0
Cc1cc(C(=O)NC2CC2)ccc1N1CCN(Cc2cnc3c(c2)NC(=O)[C@@H]2CCCN32)CC1 [Compound 142, (S)—N-cyclopropyl-3-methyl-4-(4-((6-oxo-5,6,6a,7,8,9-hexahydropyrido[3,2-e]pyrrolo[1,2-a]pyrazin-3-yl)methyl)piperazin-1-yl)benzamide] | 226.7 to 233.5 | ≤ 0.0126 |  | >2000

More lines, main results first:

melting point [°C] | IC50 (PARP) [µM] | SMILES | Kd [1] [µM] | PF50 (Jurkat cell line)
265 to 268 | 0.0158 to 0.0398 | O=C(NC1CC1)c1ccc(N2CCN(Cc3cnc4c(c3)NC(=O)[C@@H]3CCCN43)CC2)cc1 [Compound 13, (S)—N-cyclopropyl-4-(4-((6-oxo-5,6,6a,7,8,9-hexahydropyrido[3,2-e]pyrrolo[1,2-a]pyrazin-3-yl)methyl)piperazin-1-yl)benzamide] |  | >5000
232.6 | ≤ 0.0126 | CCNC(=O)c1ccc(N2CCN(Cc3cnc4c(c3)NC(=O)[C@@H]3CCCCN43)CC2)cc1 [Compound 73, (S)—N-ethyl-4-(4-((6-oxo-6,6a,7,8,9,10-hexahydro-5H-dipyrido[1,2-a:3′,2′-e]pyrazin-3-yl)methyl)piperazin-1-yl)benzamide] |  | >2000
242 | ≥ 0.0501 | CCOC(=O)c1ccc(N2CCN(Cc3cnc4c(c3)NC(=O)[C@@H]3CCCN43)CC2)cc1 [Compound 101, (S)-ethyl 4-(4-((6-oxo-5,6,6a,7,8,9-hexahydropyrido[3,2-e]pyrrolo[1,2-a]pyrazin-3-yl)methyl)piperazin-1-yl)benzoate] |  | >10
99.2 | ≥ 0.0501 | CN(C)C(=O)c1ccc(N2CCN(Cc3cnc4c(c3)NC(=O)[C@@H]3CCCN43)CC2)cc1 [Compound 139, (S)—N,N-dimethyl-4-(4-((6-oxo-5,6,6a,7,8,9-hexahydropyrido[3,2-e]pyrrolo[1,2-a]pyrazin-3-yl)methyl)piperazin-1-yl)benzamide] |  | ≧0
91.9 | ≥ 0.0501 | CCN(C)C(=O)c1ccc(N2CCN(Cc3cnc4c(c3)NC(=O)[C@@H]3CCCN43)CC2)cc1 [Compound 140, (S)—N-ethyl-N-methyl-4-(4-((6-oxo-5,6,6a,7,8,9-hexahydropyrido[3,2-e]pyrrolo[1,2-a]pyrazin-3-yl)methyl)piperazin-1-yl)benzamide] |  | ≧0
